How the values were obtained:
Format in all cases: in vivo, rat
[1] = system: tyrosine hydroxylase (TH); assay: Example 3: TH immunostaining density and TH positive neuron number in SNc after 6-OHDA lesion
Protocol: A paired experimental design was used and the experimenter was blinded to the treatment groups. Eighteen male Wistar rats (50-60 days old, 280-310 g) were used for this study. 6-hydroxy dopamine (6-OHDA) was prepared as 8 μg in a base of 2 μl 0.9% saline containing 1% ascorbic acid. It was administered into the right medial forebrain bundle (MFB) using coordinates of AP+4.7 mm, R 1.6 mm, V−8 mm under anaesthesia of 3% halothane. 6-OHDA was injected into the right MFB using a Hamilton syringe (100 μl with a 30G needle) controlled by a microdialysis infusion pump at an infusion rate of 0.2 μl/minute. The infusion needle was then slowly withdrawn 5 minutes after the infusion. […] Briefly, a guide cannula (21G, 6 mm) was fixed on the top of the dura with coordinates of AP+7.5 mm, R 1.5 mm immediately after the injection of 6-OHDA. Either GPE (3 μg/15 μl) or its vehicle were infused into the right lateral ventricle 2 hours later at an infusion rate of 2 μl/minute. Rats were then housed in a holding room with food and water ad libitum for the next 2 weeks.
The rats were then deeply anaesthetized with an overdose of pentobarbital and transcardially perfused with normal saline followed by 10% buffered formalin. The brains were removed from the skull and kept in the same fixative for the next 48 hours. A standard paraffin tissue preparation was used to process the tissue so that it could be used for immunohistochemistry. Coronal sections (8 μm) were cut using a microtome, and the sections were mounted on chrome alum coated microscopy slides and air-dried. SNc sections used for immunohistochemical staining were deparaffinized, rehydrated and washed in PBS (0.1M). The sections were then pretreated with 1% H2O2 for 20 minutes, washed with 0.1M PBS (3×5 minutes) and incubated with rabbit polyclonal antisera raised against tyrosine hydroxylase (Protos Biotech, USA) diluted 1:500 with 1% goat serum for 48 hours at 4° C. The sections were washed in PBS (3×5 minutes) and incubated with donkey anti-rabbit biotinylated secondary antibody (1:200, Amersham, Life Science) overnight at room temperature. The sections were washed, incubated in streptavidin-biotinylated horseradish peroxidase (1:200, Amersham, Life Science) for 3 hours, washed again in PBS and then reacted in 0.05% 3,3-diaminobenzidine tetrahydrochloride (DAB) and 0.01% H2O2 to produce a brown reaction product. The sections were dehydrated in a graded alcohol series, cleared in xylene and coverslipped with mounting medium.
The average density from the background was also measured. The analyst was blinded to the treatment and control groups. The difference in average density between the background and TH immunostaining was calculated and used for data analysis. […]

[2] = system: tyrosine hydroxylase (TH); assay: Example 4: survival of TH immunopositive nigral neurons after medial forebrain bundle transection; conditions: lesioned side; daily supranigral GPE 0.3 μg/μl, 1 μl, for two weeks after MFB transection; ipsilateral/contralateral; FIG. 5
Protocol: Adult male Wistar rats (200-220 g) were anaesthetized with 75 mg/kg Nembutal and positioned in a stereotaxic apparatus. Unilateral transection of the medial forebrain bundle which contains the ascending nigral dopaminergic projection fibers was made 1.3 mm rostral to the rostral tip of the SNc using a retractable wire knife (David Kopf Instruments, Tujunga, Calif.). The knife was lowered into the brain using the following coordinates from the atlas of Paxinos and Watson (1986), Sydney: Academic Press: 3.3 mm posterior to Bregma, 2.4 mm lateral from midline, and 8.5 mm ventral from skull, the blade was extended 2.0 mm toward midline, raised 2.5 mm dorsally, retracted and extended again, and then returned 2.5 mm ventrally. The wire blade was retracted and the knife withdrawn. Next, a 22-gauge metal guide cannula was permanently fixed into place supranigrally at 5.0 mm posterior to Bregma, 2.0 mm lateral to midline, and 6.8 mm ventral to skull. […]
Immunopositive cells were counted in the central SNc Counts were made ventral and lateral to the lemniscus medialis, including both the pars compacta and pars reticulata, but excluding the ventral tegmental area in the ventromedial midbrain and the retrorubral field in the caudolateral midbrain. […] To reveal percent survival, percent changes were calculated by dividing the ipsilateral value by contralateral value.

[3] = system: tyrosine hydroxylase (TH); assay: Example 1: TH immunopositive neuron count in SNc after 6-OHDA lesion, GPE given 2 hours later; conditions: lesioned (right) side; 3 μg GPE via guide cannula 2 hours after 6-OHDA; 14 days; 3 levels of SNc; vs vehicle; FIG. 1
Protocol: This experiment was blind with respect to the treatment (with GPE or the vehicle) and with respect to the counting of neurons expressing TH (between sections from animals treated with GPE or vehicle).
(§1) The objective of this experiment was to determine the effects of administering GPE on the expression of tyrosine hydroxylase (TH) in the presence or absence of CNS injury. […] Specifically, 9 pairs of adult male Wistar rats (280-320 g) were prepared under 3% halothane/O2 anaesthesia. The oxygen free radical producing neurotoxin 6-hydroxydopamine (6-OHDA) which produces degeneration of dopamine neurones (8 μg/2 μl) was injected into the median forebrain bundle using a 30 gauge needle (coordinates: anterior-posterior +4.7 mm, right +1.6 mm, vertical −8.5 mm). A guide cannula was placed on the dura 7.5 mm anterior from stereotaxic zero and 1.5 mm from the midline on the right. The rats were left to recover at room temperature. 2 hours after the administration of 6-OHDA the rats were treated, via the guide cannula, with 3μg GPE or vehicle alone (15μl injected with a pump rate of 2 μl/minute, 0.1M acetate buffer [pH6], diluted 10 times in 0.1 bovine serum albumin in 0.1M phosphate buffered saline [PBS][pH7.31]). […]
(§2) The total counts of neurons were compared between the GPE and the vehicle treated group. Data were analysed with paired t-test and presented as mean±sem.

[4] = system: tyrosine hydroxylase (TH); assay: Example 2: TH immunopositive neuron count in SNc after 6-OHDA lesion, second set of rats; conditions: 3 μg GPE 2 hours after 6-OHDA; 2 levels of SNc counted; vs vehicle; FIG. 2
Protocol: as §1, §2
Example 2 was performed using a second set of rats (9 pairs), using the same experimental parameters except that only the immunopositive neurons at 2 levels of the SNc were counted.

Gly-Pro-Glu [GPE]
loss of TH immunopositive neurons in the SNc ([1]; compared to the control group, 6-OHDA lesion): prevented the loss | density of TH immunostaining in cytoplasm and processes of neurons ([1]; ipsilateral SNc, GPE intraventricularly 2 hours after 6-OHDA, FIG. 4): restored | neuronal survival (TH immunopositive neurons, R/L ratio) ([1]; most caudal level of SNc, GPE 3 μg/15 μl into right lateral ventricle 2 hours after 6-OHDA, 2 weeks, mean±SEM): 60±13.0% | restoration in TH immunoreactivity (density of TH immunostaining, R/L ratio) ([1]; most caudal level of SNc, GPE 3 μg/15 μl into right lateral ventricle 2 hours after 6-OHDA, 2 weeks, mean±SEM, FIG. 3): 99.6±27% | percent cell survival of TH immunopositive neurons [2]: increased | number of TH immunopositive dopaminergic neurons [3]: increased | TH expression (number of TH immunopositive neurons) [4]: upregulation of TH expression

— US6933282B2, “Regulation of tyrosine hydroxylase by GPE” (Neuren Pharmaceuticals Ltd., priority 1998, dated 2005)
